Patent publication US7943775B2, “Small molecules for imaging protein-protein interactions” (The United States of America as represented by the …, priority 2006, dated 2011)

Key:
[1] = target: T1, FKBP12 (Homo sapiens, UniProt P62942); test: ELISA screening of candidates for the chaperone binding portion (FKBP12); conditions: for Average Luminescence Concentration (CPS): compound coated at 1 μM; for binding affinity to chaperone FKBP12, in words: comparison of the four isomers
T1 construct: His (6xHis); made in house; host or cells: E. coli BL21-AI
T1 sequence (P62942 whole entry): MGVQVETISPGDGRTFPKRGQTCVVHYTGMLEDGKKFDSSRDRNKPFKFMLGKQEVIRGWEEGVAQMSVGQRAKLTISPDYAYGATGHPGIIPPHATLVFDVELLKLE
Procedure: The following four compounds, synthesized as described in, or in a manner analogous to the description in, Example 3, were tested for their suitability as candidates for the chaperone binding portion of the construct of this invention. The chaperone to which binding was evaluated was FKBP12 and, screening was performed by ELISA.
Step 1. Sample Solutions. Four samples of each of the test compounds were prepared by dissolving the compounds in the coating buffer described in Example 2 to a final concentration of 1 μM.
Step 2. Coating the Plate. The wells of a 96-well microtiter plate were coated with the sample solutions at 100 μL/well. The plates were then sealed and allowed to incubate at 4° C. for at least 8 hours.
Step 3. Washing the Plate. The coating solution was removed from the wells and the plate was washed two times with the washing solution of Example 2 at 300 μL/well.
Step 4. Blocking. The blocking buffer used in Example 2 was added at a volume of 150 μL/well, and the plate was incubated at room temperature for 2 hours.
Step 5. Sampling. Biotin-labeled FKBP12 was dissolved in a binding buffer to form a 1 μM solution. The binding buffer was a mixture of a coating buffer with the blocking buffer of Step 4 in a 90:10 ratio by volume. The coating buffer consisted of 50 mM Tris (Trizma Base from Sigma-Aldrich), 150 mM NaCl, 1 mM CaCl2, 1mM MgCl2, 1 mM MnCl2, pH=7.4 in redistilled water. Once blocking had been completed in Step 4, the blocking buffer was removed from each well, and the biotin-labeled […] solution was placed in one of the wells for each of the four test compounds, together with additional blocking buffer for a total volume of 125 μL in the well. Dilutions were then prepared to achieve final concentrations per well of […]. The dilutions were performed in quadruplicate, thus resulting in four sets of wells for each test compound. The procedures used for cloning, expression, and purification of FKBP12 are provided at the end of this example.
Step 6. Mixing. The solution in each well was mixed by being drawn into and ejected from a pipette 15 times. The plate was then gently agitated to achieve thorough mixing. After mixing, the plate was covered and incubated at room temperature overnight.
Step 7. Washing. The solution in each well was discarded and the plate was washed three times with 170 μL/well of the washing solution of Example 2.
Step 8. Binding with avidin-HRP. NeutrAvidinHRP solution was added to each well at 0.01 μg (100 μL)/well. The wells were then covered and incubated at room temperature for 30 minutes.
Step 9. Substrate addition. The solution in each well was discarded and the plate was washed 3 times with the above-referenced washing solution at 170 μL/well of washing solution. A chemiluminescent substrate solution was then added at 100 μL/well.
Step 10. Fluorescence measurement and calculations.

[2] = target: T2, Biotin-labeled amyloid-β (Homo sapiens, UniProt P05067); test: ELISA assay, binding of biotin-labeled amyloid-β to plate-coated test compounds; conditions: compound coated at 1 μM
T2 sequence (P05067 672-711 limits assumed): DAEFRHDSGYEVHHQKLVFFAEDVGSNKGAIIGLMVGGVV
Procedure: Step 1. Sample Solution Preparations. For each test compound, four samples and two standard solutions using Thioflavin-T as the standard were prepared in a coating buffer, each to a final concentration of 1 μM. The coating buffer was 50 mM Tris (Trizma Base from Sigma Aldrich, Inc., St. […] Step 2. Coating the Plate. The sample solutions were applied to individual wells of a 96-well polystyrene microtiter plate at 100 μL/well. The plates were sealed and allowed to incubate at 4° C. for at least 8 hours. Step 3. Washing the Plate. The sample solutions were removed and the plate was washed two times with 300 μL/well of washing solution, which consisted of a 1 to 25 dilution in water of DELFIA® Wash Concentrate (PerkinElmer Life Sciences, Inc., Boston, Mass., USA). Step 4. Blocking. Blocking was achieved by adding 150 μL/well of a blocking buffer which consisted of a 1 to 20 dilution in water of Milk Diluent/Blocking Solution Concentrate (from KPL, Inc., Gaithersburg, Md., USA). The plate was then incubated at room temperature for 2 hours. Step 5. Sampling. Biotin-labeled amyloid-β was dissolved in a binding buffer to form a 1 μM solution of the amyloid-β. The binding buffer was a mixture of a coating buffer with the blocking buffer of Step 4 in a 90:10 ratio by volume. […] The dilutions were performed in quadruplicate, thus resulting in four sets of wells for each test compound. Step 6. Mixing. The solution in each well was mixed by being drawn into and ejected from a pipette 15 times. The plate was then gently agitated for further mixing. The plate was then covered and incubated at room temperature overnight. Step 7. Washing. The solution in each well was discarded and the plate was washed three times with 170 μL/well of the washing solution described above. Step 8. Binding with avidin-HRP. NeutrAvidinHRP solution was added to each well at 0.01 μg/well. The wells were then covered and incubated at room temperature for 30 minutes. Step 9. Substrate addition. The solution in each well was discarded and the plate was washed 3 times with the above-referenced washing solution at 170 μL/well of washing solution. A chemiluminescent substrate solution which was a mixture of equal volumes of LumiGLO Substrate A and LumiGLO Substrate B from KPL, Inc., was then added at 100 μL/well. Step 10. Fluorescence measurement and calculations. Luminescence was read on a Wallac Victor 1420 Multilabel Reader (PerkinElmer Life Sciences, Inc., Boston, Mass., USA). […] Average luminescence concentrations in counts per second (CPS) for each of the four β-amyloid-binding portion candidates at each dilution of the biotin-labeled β-amyloid are shown in Table I below.

[3] = target: T2, Biotin-labeled amyloid-β; test: Dose response assay, plate-coated test compounds at 6 concentrations vs biotin-labeled amyloid β; format: binding; conditions: biotin-labeled amyloid at 1 μM; compounds coated at 6 concentrations
Procedure: Step 1. Coating the plate. The four compounds 3a, 3b, 3c, and 3d were diluted to 6 different concentrations in the same coating buffer used in the ELISA. The resulting solutions were applied to individual wells of a 96-well polystyrene microtiter plate at 100 μL/well. The plate was then sealed and allowed to incubate at 4° C. for at least 8 hours.
Step 2. Washing the plate. The sample solutions were then removed and the plate was washed twice with 300 μL/well of the same washing solution used in the ELISA.
Step 3. Blocking. The blocking buffer used in the ELISA was added at a volume of 150 μL/well, and the plate was incubated at room temperature for 2 hours.
Step 4. Sampling. The blocking buffer was removed and biotin-labeled amyloid P was added to each well at a concentration of 1 μM in the same binding buffer used in the ELISA. The solution in each well was then mixed by being drawn into and ejected from a pipette 15 times. The plate was then gently agitated for further mixing. After mixing, the plate was covered and incubated at room temperature overnight.
Step 5. Washing. The solution in each well was discarded and the plate was washed three times with 170 μL/well of the washing solution described above.
Step 6. Binding with avidin-HRP and substrate. NeutrAvidinHRP solution was added to each well at 0.01 μg/well. The wells were then covered and incubated at room temperature for 30 minutes. The solution in each well was discarded and the plate was washed 3 times with the above-referenced washing solution at 170 μL/well of washing solution. The chemiluminescent substrate solution of the ELISA was then added at 100 μL/well, and luminescence was read using the Wallac Victor 1420 Multilabel Counter.
Step 7. Reading and calculations. Values for average luminescence vs. concentration were developed in the same manner as in the ELISA. From these values were determined EC50 values for each of the four test compounds as β-amyloid-binding portion candidates.

[4] = Concentration 1 (μM/well) biotin-labeled FKBP12
[5] = Concentration 5 (μM/well) biotin-labeled FKBP12
[6] = Concentration 10 (μM/well) biotin-labeled FKBP12
[7] = Concentration 20 (μM/well) biotin-labeled FKBP12
[8] = Concentration 30 (μM/well) biotin-labeled FKBP12
[9] = Concentration 40 (μM/well) biotin-labeled FKBP12
[10] = β-Amyloid Dilution 10 (μL/well)
[11] = β-Amyloid Dilution 20 (μL/well)
[12] = β-Amyloid Dilution 30 (μL/well)
[13] = β-Amyloid Dilution 40 (μL/well)

Average Luminescence Concentration (CPS) [1, 4] [CPS] | Average Luminescence Concentration (CPS) [1, 5] [CPS] | Average Luminescence Concentration (CPS) [1, 6] [CPS] | Average Luminescence Concentration (CPS) [1, 7] [CPS] | Average Luminescence Concentration (CPS) [1, 8] [CPS] | Average Luminescence Concentration (CPS) [1, 9] [CPS] | binding affinity to chaperone FKBP12, in words [1] | SMILES | Average Luminescence Concentration (CPS) ([2]; β-Amyloid Dilution 1 (μL/well)) | Average Luminescence Concentration (CPS) ([2]; β-Amyloid Dilution 5 (μL/well)) | Average Luminescence Concentration (CPS) [2, 10] [CPS] | Average Luminescence Concentration (CPS) [2, 11] [CPS] | Average Luminescence Concentration (CPS) [2, 12] [CPS] | Average Luminescence Concentration (CPS) [2, 13] [CPS] | EC50 [3] [µM]
297 | 876 | 931 | 579 | 1366 | 1231 | low or moderate binding affinity | CCC(C)(C)C(=O)C(=O)N1CCCC[C@H]1C(=O)O[C@@H](CCc1ccc(OC)c(OC)c1)c1ccc(OCC(=O)O)cc1 [9-SS] | – | – | – | – | – | – | –
762 | 1050 | 1218 | 1410 | 1478 | 1392 | – | CCC(C)(C)C(=O)C(=O)N1CCCC[C@H]1C(=O)O[C@@H](CCc1ccc(OC)c(OC)c1)c1ccc(OCC(=O)O)cc1 [9-SR] | – | – | – | – | – | – | –
– | – | – | – | – | – | – | NCCNC(=O)c1ccccc1Nc1cccc(C(F)(F)F)c1 [3a, N-(2-amino-ethyl)-2-(3-trifluoromethyl-phenylamino)-benzamide] | 323 | 816 | 1453 | 2072 | 3072 | 2986 | 50.4
– | – | – | – | – | – | – | NCCCNC(=O)c1ccccc1Nc1cccc(C(F)(F)F)c1 [3b] | 878 | 1325 | 1694 | 2184 | 4629 | 4788 | 31.9
– | – | – | – | – | – | – | Cc1ccc2c(c1)sc(-c1ccc(N(C)C)cc1)[n+]2C.[Cl-] [Thioflavin-T, reference compound] | 940 | 570 | 731 | 86 | 2311 | 5140 | –
1399 | 1688 | 1685 | 2006 | 4244 | 5509 | – | CCC(C)(C)C(=O)C(=O)N1CCCC[C@H]1C(=O)O[C@H](CCc1ccc(OC)c(OC)c1)c1ccc(OCC(=O)O)cc1 [9-RS, (1R)-1-[4-(carboxymethoxy)phenyl]-3-(3,4-dimethoxy-phenyl)-1-propanyl (2S)-1-(3,3-dimethyl-1,2-dioxopentyl)-2-piperidinecarboxylate] | – | – | – | – | – | – | –
660 | 1158 | 769 | 371 | 1297 | 1138 | low or moderate binding affinity | CCC(C)(C)C(=O)C(=O)N1CCCC[C@H]1C(=O)O[C@@H](CCc1ccc(OC)c(OC)c1)c1ccc(OCC(=O)O)cc1 [9-RR] | – | – | – | – | – | – | –
– | – | – | – | – | – | – | NCCCCNC(=O)c1ccccc1Nc1cccc(C(F)(F)F)c1 [3c] | 32 | 74 | 3128 | 161 | 2968 | 3025 | 36.2
– | – | – | – | – | – | – | NCCCCCNC(=O)c1ccccc1Nc1cccc(C(F)(F)F)c1 [3d] | 105 | 220 | 678 | 1461 | 2662 | 2579 | 35.8
